The source of these data is patent US20240025856A1, “1,2,3,4-TETRAHYDROQUINOLINE DERIVATIVES AS INHIBITORS OF THE YAP/TAZ-TEAD ACTIVATION FOR TREATING CANCER” (KATHOLIEKE UNIVERSITEIT LEUVEN, priority 2020, published 2024).

pIC50: −log10 of the molar value.

For the first assay, the system named is YAP/TAZ-TEAD transcription. Nature of the assay: Reporter gene assay for measuring the inhibition of YAP/TAZ-TEAD transcription (TEAD-responsive element luciferase reporter in Hek293T cells). The assay is classed as cell-based. The note with it: Hek293T cells transiently transfected with TEAD-responsive element luciferase reporter; 24 hours incubation. As to the method: Hek293T cells are cultured in DMEM supplemented with 10% fetal bovine serum, Sodium pyruvate, Sodium bicarbonate, L-glutamine. The cells are harvested and transiently transfected with TEAD-responsive element luciferase reporter. Transfected cells are plated in 384-wells plate containing pre-diluted compounds. After 24 hours incubation at 37° C./5% CO2, assay plates were cooled down to RT and levelled to an equal volume per well, prior to the addition of 25 uL luciferase substrate SteadyLite (Perkin Elmer)/well. The plate was shaken for 10 min at 600 rpm, centrifuged for 1 min at 500 rpm and measured with an Envision reader (PerkinElmer). The amount of relative light units produced by the TEAD reporter is used to calculated percent of inhibition. The percent of reporter inhibition was calculated in the presence of a positive control inhibitor (100% inhibition) versus a condition with the presence of the vehicle basal activity of the reporter (0% inhibition). The ability of a test compound to inhibit this activity was determined as: Percentage inhibition=[[…]((RLU determined in the presence of vehicle−RLU determined for sample with test compound present) divided by (RLU determined in the presence of vehicle−RLU determined for sample with positive control inhibitor))]*100
The activities of example compounds tested are depicted in the table below. The activity ranges A, B and C refer to IC50 values in the reporter gene assay as follows: “A”: IC50<1 μM; “B”: 1 μM≤IC50≤20 μM and “C”: IC50>20 μM; NT=not tested.
For orientation: Reporter assays use an easily measured gene product as a stand-in for the process of interest.
Usually pIC50 stands for the IC50 on a negative log10 scale, so that one unit is a factor of ten. A higher pIC50 goes with a low IC50. Consider `OCCNC1Cc2ccccc2N(c2ccc(C(F)(F)F)cc2)C1` (single isomer, unassigned) [043-En1, (R)- or (S)-2-((1-(4-(trifluoromethyl)phenyl)-1,2,3,4-tetrahydroquinolin-3-yl)amino)ethan-1-ol], for which the pIC50 was 4.70 to 6.00.
Compound `OCCNC1Cc2ccccc2N(c2ccc(C(F)(F)F)cc2)C1` (single isomer, unassigned) [043-En2, (R)- or (S)-2-((1-(4-(trifluoromethyl)phenyl)-1,2,3,4-tetrahydroquinolin-3-yl)amino)ethan-1-ol] showed a pIC50 of over 6.00.
`OCCCNC1Cc2ccccc2N(c2ccc(C(F)(F)F)cc2)C1` (single isomer, unassigned) [045-En1, (R)- or (S)-3-((1-(4-(trifluoromethyl)phenyl)-1,2,3,4-tetrahydroquinolin-3-yl)amino)propan-1-ol] showed a pIC50 of 4.70 to 6.00.
On the same count and under the same terms, the figure for `OCCCNC1Cc2ccccc2N(c2ccc(C(F)(F)F)cc2)C1` (single isomer, unassigned) [045-En2, (R)- or (S)-3-((1-(4-(trifluoromethyl)phenyl)-1,2,3,4-tetrahydroquinolin-3-yl)amino)propan-1-ol] is 4.70 to 6.00; for `C=CC(=O)NCC1Cc2c(C(=O)NS(C)(=O)=O)cccc2N(c2ccc(C(F)(F)F)cc2)C1` (single isomer, unassigned) [157-En1, (R)- or (S)-3-(acrylamidomethyl)-N-(methylsulfonyl)-1-(4-(trifluoromethyl)phenyl)-1,2,3,4-tetrahydroquinoline-5-carboxamide] it is under 4.70.
In turn, `FC(F)(F)c1ccc(N2CC(C3CC(Br)=NO3)Cc3ccccc32)cc1` (single isomer, unassigned) [Cpd. No. 194(Dia1)-En2, 3-bromo-5-(1-(4-(trifluoromethyl)phenyl)-1,2,3,4-tetrahydroquinolin-3-yl)-4,5-dihydroisoxazole] showed a pIC50 of under 4.70.
`FC(F)(F)c1ccc(N2CC(C3CC(Br)=NO3)Cc3ccccc32)cc1` (single isomer, unassigned) [Cpd. No. 194(Dia2)-En1, 3-bromo-5-(1-(4-(trifluoromethyl)phenyl)-1,2,3,4-tetrahydroquinolin-3-yl)-4,5-dihydroisoxazole] gave a pIC50 of 4.70 to 6.00.
On the same count and under the same terms, the result for `FC(F)(F)c1ccc(N2CC(C3CC(Br)=NO3)Cc3ccccc32)cc1` (single isomer, unassigned) [Cpd. No. 194(Dia2)-En2, 3-bromo-5-(1-(4-(trifluoromethyl)phenyl)-1,2,3,4-tetrahydroquinolin-3-yl)-4,5-dihydroisoxazole] reads over 6.00; that for `C=CC(=O)NCC1Cc2c(CC(=O)O)cccc2N(c2ccc(C(F)(F)F)cc2)C1` (stereo not drawn) [Cpd. No. 161, 2-(3-(acrylamidomethyl)-1-(4-(trifluoromethyl)phenyl)-1,2,3,4-tetrahydroquinolin-5-yl)acetic acid], 4.70 to 6.00.
The compound `C=CC(=O)NCC1Cc2c(CC(=O)O)cccc2N(c2ccc(C(F)(F)F)cc2)C1` (stereo not drawn) [Cpd. No. 161-En1, 2-(3-(acrylamidomethyl)-1-(4-(trifluoromethyl)phenyl)-1,2,3,4-tetrahydroquinolin-5-yl)acetic acid] had a pIC50 of under 4.70.
Regarding `C=CC(=O)NCC1Cc2c(CC(=O)O)cccc2N(c2ccc(C(F)(F)F)cc2)C1` (stereo not drawn) [Cpd. No. 161-En2, 2-(3-(acrylamidomethyl)-1-(4-(trifluoromethyl)phenyl)-1,2,3,4-tetrahydroquinolin-5-yl)acetic acid], the pIC50 is 4.70 to 6.00.
`C=CC(=O)NCC1Cc2c(Cc3noc(=O)[nH]3)cccc2N(c2ccc(C(F)(F)F)cc2)C1` (stereo not drawn) [Cpd. No. 168-En1, N-((5-((5-oxo-4,5-dihydro-1,2,4-oxadiazol-3-yl)methyl)-1-(4-(trifluoromethyl)phenyl)-1,2,3,4-tetrahydroquinolin-3-yl)methyl)acrylamide]: the pIC50 was 4.70 to 6.00.
As to `C=CC(=O)NCC1Cc2c(Cc3noc(=O)[nH]3)cccc2N(c2ccc(C(F)(F)F)cc2)C1` (stereo not drawn) [Cpd. No. 168-En2, N-((5-((5-oxo-4,5-dihydro-1,2,4-oxadiazol-3-yl)methyl)-1-(4-(trifluoromethyl)phenyl)-1,2,3,4-tetrahydroquinolin-3-yl)methyl)acrylamide], the pIC50 was over 6.00.

Still in this assay, the particulars now being: Homo sapiens, HEK-293T, 24 h, Hek293T cells transiently transfected with TEAD-responsive element luciferase reporter; 24 hours incubation.
Regarding `C=CC(=O)NC1Cc2ccccc2N(c2ccc(C(F)(F)F)cc2)C1` (single isomer, unassigned) [001-En1], the pIC50 is over 6.00.
The same measure, in the same setting: the figure for `C=CC(=O)NCC1Cc2ccccc2N(c2ccc(C(F)(F)F)cc2)C1` (single isomer, unassigned) [084-En2, N-((1-(4-(trifluoromethyl)phenyl)-1,2,3,4-tetrahydroquinolin-3-yl)methyl)acrylamide] is over 6.00; for `NCC1Cc2ccccc2N(c2ccc(C(F)(F)F)cc2)C1` (stereo not drawn) [170 (Int-10), (1-(4-(trifluoromethyl)phenyl)-1,2,3,4-tetrahydroquinolin-3-yl)methanamine] it is 4.70 to 6.00; for `NC1Cc2ccccc2N(c2ccc(C(F)(F)F)cc2)C1` (stereo not drawn) [171 (Int-3), 1-(4-(trifluoromethyl)phenyl)-1,2,3,4-tetrahydroquinolin-3-amine] it is 4.70 to 6.00.
Still for that read-out and setting: the result for `C=CC(=O)NC1Cc2nc(OC)ccc2N(c2ccc(C(F)(F)F)cc2)C1` (stereo not drawn) [Cpd. No. 141, N-(6-methoxy-1-(4-(trifluoromethyl)phenyl)-1,2,3,4-tetrahydro-1,5-naphthyridin-3-yl)acrylamide] reads over 6.00; that for `C=CC(=O)NCC1Cc2c(C(=O)O)cccc2N(c2ccc(C(F)(F)F)cc2)C1` (stereo not drawn) [Cpd. No. 156, 3-(acrylamidomethyl)-1-(4-(trifluoromethyl)phenyl)-1,2,3,4-tetrahydroquinoline-5-carboxylic acid], under 4.70; that for `C=CC(=O)NCC1Cc2c(C(=O)NS(=O)(=O)C3CC3)cccc2N(c2ccc(C(F)(F)F)cc2)C1` (stereo not drawn) [Cpd. No. 158, 3-(acrylamidomethyl)—N-(cyclopropylsulfonyl)-1-(4-(trifluoromethyl)phenyl)-1,2,3,4-tetrahydroquinoline-5-carboxamide], under 4.70.
In the case of `C=CC(=O)NCC1Cc2c(Cc3noc(=O)[nH]3)cccc2N(c2ccc(C(F)(F)F)cc2)C1` (stereo not drawn) [Cpd. No. 168, N-((5-((5-oxo-4,5-dihydro-1,2,4-oxadiazol-3-yl)methyl)-1-(4-(trifluoromethyl)phenyl)-1,2,3,4-tetrahydroquinolin-3-yl)methyl)acrylamide], the pIC50 was over 6.00.
`C=CC(=O)NC1Cc2c(C(=O)NC#N)cccc2N(c2ccc(C(F)(F)F)cc2)C1` (stereo not drawn) [Cpd. No. 169, 3-acrylamido-N-cyano-1-(4-(trifluoromethyl)phenyl)-1,2,3,4-tetrahydroquinoline-5-carboxamide] had a pIC50 of under 4.70.
On to `C=CC(=O)NC1Cc2ccccc2N(C(=O)C2CCCCC2)C1` (stereo not drawn) [Cpd. No. 173, N-(1-(cyclohexanecarbonyl)-1,2,3,4-tetrahydroquinolin-3-yl)acrylamide], for which the pIC50 is under 4.70.
The same measure, in the same setting: the figure for `C=CC(=O)NC1Cc2ccccc2N(Cc2ccccc2)C1` (stereo not drawn) [Cpd. No. 174, N-(1-benzyl-1,2,3,4-tetrahydroquinolin-3-yl)acrylamide] is over 6.00; for `C=CC(=O)NC1Cc2ccccc2N(CC2CCCCC2)C1` (stereo not drawn) [Cpd. No. 175, N-(1-(cyclohexylmethyl)-1,2,3,4-tetrahydroquinolin-3-yl)acrylamide] it is over 6.00; for `C=CC(=O)NCC1CCc2ccccc2N1c1ccc(C(F)(F)F)cc1` (stereo not drawn) [Cpd. No. 178, N-((1-(4-(trifluoromethyl)phenyl)-1,2,3,4-tetrahydroquinolin-2-yl)methyl)acrylamide] it is over 6.00.
`CC(=O)NC/C=C/C(=O)NCC1Cc2ccccc2N(c2ccc(C(F)(F)F)cc2)C1` (stereo not drawn) [Cpd. No. 193, (E)-4-acetamido-N-((1-(4-(trifluoromethyl)phenyl)-1,2,3,4-tetrahydroquinolin-3-yl)methyl)but-2-enamide]: the pIC50 was over 6.00.
`C=CC(=O)NC1Cc2ccccc2N(c2ccccc2)C1` (stereo not drawn) [compound 002, N-(1-phenyl-1,2,3,4-tetrahydroquinolin-3-yl)acrylamide] showed a pIC50 of over 6.00.
Same read-out and setting: the result for `C=CC(=O)NC1Cc2ccccc2N(c2cccc(C(F)(F)F)c2)C1` (stereo not drawn) [compound 003, N-(1-(3-(trifluoromethyl)phenyl)-1,2,3,4-tetrahydroquinolin-3-yl)acrylamide] reads over 6.00; that for `C=CC(=O)NC1Cc2ccccc2N(c2ccc(C(C)C)cc2)C1` (stereo not drawn) [compound 004, N-(1-(4-isopropylphenyl)-1,2,3,4-tetrahydroquinolin-3-yl)acrylamide], over 6.00.
In turn, `C=CC(=O)NC1Cc2ccccc2N(c2cccc(C(C)C)c2)C1` (stereo not drawn) [compound 005, N-(1-(3-isopropylphenyl)-1,2,3,4-tetrahydroquinolin-3-yl)acrylamide] showed a pIC50 of over 6.00.
Compound `C=CC(=O)NC1Cc2ccccc2N(c2cccc(OC)c2)C1` (stereo not drawn) [compound 006, N-(1-(3-methoxyphenyl)-1,2,3,4-tetrahydroquinolin-3-yl)acrylamide] gave a pIC50 of over 6.00.
The compound `C=CC(=O)NC1Cc2ccccc2N(c2ccc(OC)cc2)C1` (stereo not drawn) [compound 007, N-(1-(4-methoxyphenyl)-1,2,3,4-tetrahydroquinolin-3-yl)acrylamide] showed a negative logarithm of the IC50 (pIC50) of over 6.00.
